In brackets after ≈: the same amount, converted by molar mass. Like-named read-outs stand apart in the source and are kept apart here.
How the values were obtained:
E.coli K12 = test: MIC, serial dilutions in liquid medium, E. coli K12; format: cell-based; settings: Escherichia coli, 24 h, 37° C, Nutrient Broth Difco
Experimental: (§1) The "in vitro" tests were carried out with the method of serial dilutions in liquid medium (Nutrient Broth Difco). The minimal inhibitory concentration (MIC) was determined after 24 h incubation at 37° C.

algae and protozoa = test: growth of algae and protozoa; format: cell-based; settings: eukaryotic microorganisms, Table 2
Experimental: (§2) Other tests were carried out on algae and protozoa in order to evaluate the sensitivity of eukaryotic organisms to this new molecule (determination of MIC in liquid nutrient medium).

E.coli 526 = test: MIC, serial dilutions in liquid medium, E. coli 526 (resistant, NKT I); format: cell-based, Escherichia coli
Experimental: as §1
(§3) The resistance to the aminosidine is due, in the case of E. coli 526, to the production of an aminoglycoside inactivating enzyme (NKT I); the other strains are clinical isolates whose mechanism of resistance is not know.

Escherichia coli B = test: MIC, serial dilutions in liquid medium, Escherichia coli B; format: cell-based; settings: 24 h, 37° C, Nutrient Broth Difco
Experimental: as §1

Proteus sp.1 = test: MIC, serial dilutions in liquid medium, Proteus sp.1; format: cell-based; settings: 24 h, 37° C, Nutrient Broth Difco
Experimental: as §1, §3

Proteus sp.2 = test: MIC, serial dilutions in liquid medium, Proteus sp.2; format: cell-based; settings: 24 h
Experimental: as §1, §3

[1] = system: ribosomes from Saccharomyces cerevisiae (8OS); test: inhibition of protein synthesis in cell-free system, 80S ribosomes; format: biochemical
Experimental: (§4) Finally, compound 224 was tested as an inhibitor of protein synthesis on cell-free systems containing ribosomes from Escherichia coli (7OS) or from Saccharomyces cerevisiae (8OS).
(§5) (*)Dose inhibiting 50% of growth (.LAMBDA.) or of protein

Proteus sp.5 = test: MIC, serial dilutions in liquid medium, Proteus sp.5; format: cell-based; settings: 24 h
Experimental: as §1, §3

Staphilococcus aureus = test: MIC, serial dilutions in liquid medium, Staphylococcus aureus; format: cell-based; settings: 24 h
Experimental: as §1

Tetrahymena geleei = test: growth inhibition of Tetrahymena geleei in liquid nutrient medium; format: cell-based
Experimental: as §2, §5

Staphylococcus aureus = test: therapeutic activity in mice experimentally infected with Staphylococcus aureus; format: in vivo; settings: sc
Experimental: (§6) The therapeutic activity was assessed in mice experimentally infected with Staphylococcus aureus and treated (4 h after infection) with a single dose of the compound by the subcutaneous route.

Ochromonas malhamensis = test: growth inhibition of Ochromonas malhamensis in liquid nutrient medium; format: cell-based
Experimental: as §2, §5

[2] = system: ribosomes from Escherichia coli (7OS); test: inhibition of protein synthesis in cell-free system, 70S ribosomes; format: biochemical; settings: for Activity (ID 50%), dose inhibiting 50% of protein synthesis: cell-free system, 70S ribosomes
Experimental: as §4, §5

Entamoeba histolytica = test: growth inhibition of Entamoeba histolytica in liquid nutrient medium; format: cell-based
Experimental: as §2

Proteus sp.4 = test: MIC, serial dilutions in liquid medium, Proteus sp.4; format: cell-based; settings: 24 h, 37° C, Nutrient Broth Difco
Experimental: as §1, §3

acute toxicity in mice = settings: mouse, in vivo, sc, subcutaneous route
Experimental: There were also carried out comparative trials for determining the actue toxicity and ototoxicity. The LD50 values in mice by the subcutaneous route are: Aminosidine, 700 mg/kg; Compound 224, 1000 mg/kg.

Euglena gracilis = test: growth inhibition of Euglena gracilis in liquid nutrient medium; format: cell-based
Experimental: as §2, §5

[3] = system: resistant strains (E. coli, Proteus sp.); test: antibacterial activity on resistant strains; format: cell-based; settings: for growth of resistant strains (in words): E. coli, Proteus sp., at concentrations at which 224 prevents growth
Experimental: as §1, §3

Proteus sp.3 = test: MIC, serial dilutions in liquid medium, Proteus sp.3; format: cell-based; settings: 24 h, 37° C, Nutrient Broth Difco
Experimental: as §1, §3

[4] = system: bacteria sensitive to the aminosidine; test: antibacterial activity in vitro and in vivo on bacteria sensitive to aminosidine
Experimental: as §1, §6

Klebsiella pneumoniae = test: MIC, serial dilutions in liquid medium, Klebsiella pneumoniae; format: cell-based; settings: 24 h
Experimental: as §1

[5] = 37° C, Nutrient Broth Difco, read-out: MIC

Row | Structure (SMILES) | MIC (E.coli K12) [µg/mL] | effect on growth of algae and protozoa (in words) (algae and protozoa) | MIC (Escherichia coli B) [µg/mL] | MIC (Proteus sp.1) [µg/mL] | Activity (ID 50%), dose inhibiting 50% of protein synthesis [1] | Activity (ID 50%), dose inhibiting 50% of growth (Tetrahymena geleei) | Activity (ID 50%), dose inhibiting 50% of growth (Ochromonas malhamensis) | Activity (ID 50%), dose inhibiting 50% of protein synthesis [2] | Activity (ID 50%), dose inhibiting 50% of growth (Entamoeba histolytica) | MIC (Proteus sp.4) [µg/mL] | LD50 (acute toxicity in mice) [mg/kg] | Activity (ID 50%), dose inhibiting 50% of growth (Euglena gracilis) | growth of resistant strains (in words) [3] | MIC (Proteus sp.3) [µg/mL] | other results
1 | NC[C@@H]1O[C@H](O[C@H]2[C@@H](O)[C@H](O[C@@H]3[C@@H](O)[C@H](N)C[C@H](N)[C@H]3O[C@H]3O[C@H](CN)[C@@H](O)[C@H](O)[C@H]3O)O[C@@H]2CO)[C@H](N)[C@@H](O)[C@@H]1O [compound 224] | 125 (≈ 203 µM) | does not affect the growth of algae and protozoa | 12.5 (≈ 20.3 µM) | 125 (≈ 203 µM) | > 500 | > 100 | > 100 | 40 | > 20 | 125 (≈ 203 µM) | 1000 | > 100 | prevents the growth of resistant strains | 125 (≈ 203 µM) | MIC (E.coli 526; Escherichia coli, 526, 24 h, 37° C, Nutrient Broth Difco, resistant strain, read-out: MIC): 100 µg/mL (≈ 162 µM); MIC (Proteus sp.2; [5]): 250 µg/mL (≈ 406 µM); MIC (Proteus sp.5; [5]): 250 µg/mL (≈ 406 µM); MIC (Staphilococcus aureus; [5]): 6.2 µg/mL (≈ 10.1 µM); ED50 (Staphylococcus aureus; mice, single subcutaneous dose 4 h after infection, read-out: DT50 (the source's name)): 50 mg/kg; selective inhibition of protein synthesis (in words) ([2]; 7OS in comparison with 8OS ribosomes): selective inhibition of protein synthesis; antibacterial activity compared with aminosidine, resistant strains (in words) ([3]; resistant strains): clearly superior on resistant strains; antibacterial activity in vitro and in vivo (in words) ([4]; bacteria sensitive to the aminosidine): remarkable antibacterial activity in vitro and in vivo; antibacterial activity compared with aminosidine, sensitive strains (in words) ([4]; sensitive strains): of the same order of magnitude of that of aminosidine; MIC (Klebsiella pneumoniae; [5]): 2 µg/mL (≈ 3.25 µM)
2 | NC[C@@H]1O[C@H](O[C@H]2[C@@H](O)[C@H](O[C@@H]3[C@@H](O)[C@H](N)C[C@H](N)[C@H]3O[C@H]3O[C@H](CO)[C@@H](O)[C@H](O)[C@H]3N)O[C@@H]2CO)[C@H](N)[C@@H](O)[C@@H]1O [Aminosidine, reference compound] | 500 (≈ 812 µM) | strong inhibitor of the organisms tested | 6.2 (≈ 10.1 µM) | 500 (≈ 812 µM) | 65 | 12.5 | 1.56 | 30 | 1 | > 500 | 700 | 12.5 | completely inactive | > 500 | MIC (E.coli 526; Escherichia coli, 526, 24 h): > 500 µg/mL; MIC (Proteus sp.2): > 500 µg/mL; MIC (Proteus sp.5): > 500 µg/mL; MIC (Staphilococcus aureus): 3.1 µg/mL (≈ 5.04 µM); ED50 (Staphylococcus aureus; 4 h, read-out: DT50): 25 mg/kg; MIC (Klebsiella pneumoniae): 1 µg/mL (≈ 1.62 µM)
